The subject of data set [1] is wild-type (TM4/8.2) strain of P. falciparum. The data set is described as follows: microbe, parasite or virus in culture. The class given is cell-based, Plasmodium falciparum. Particulars: wild-type strain TM4/8.2. An outline of the steps: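 Parasitized erythrocytes (1.5% cell suspension, 1-2% parasitemia) incubated with compound (0.1% DMSO final) at 37° C in 3% CO2 for 24 h, then pulsed with 0.25 μCi [3H]-hypoxanthine for a further 18-24 h. Parasite DNA harvested onto glass filters; incorporated radioactivity counted by liquid scintillation.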

Data set [2] has as its target T1, wild-type (wt) DHFR from Plasmodium falciparum (Plasmodium falciparum, UniProt P13922, N108S/R59C).
T1 construct: The Dihydrofolate Reductase Domain of Plasmodium falciparum Thymidylate Synthase-Dihydrofolate Reductase; made in house
As to the kind of experiment: Inhibition of wild-type pfDHFR (spectrophotometric, Ki).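 Further: Affinity-purified enzyme, initial reaction rates measured across a range of inhibitor concentrations, Ki obtained by nonlinear least-squares fitting.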 The class given is biochemical.
Procedure: (§1) For determination of the Ki values of a number of synthesized analogues, the assay reactions were initiated with affinity-purified enzyme (^˜0.005-0.01 U ml^−1), and the initial velocities in the presence of varying concentrations of inhibitors were analysed by non-linear least square fit using Kaleidagraph™ software.

Data set [3] deals with A16V.S108T mutant (mut) of DHFR from Plasmodium falciparum. The data set is described as follows: biochemical. Particulars: resistance factor.
Procedure: as §1
The target of data set [4] is T2, A16V.S108T mutant (mut) of DHFR from Plasmodium falciparum (Plasmodium falciparum, UniProt A7UD81, A16V/S108T).
T2 construct: The Dihydrofolate Reductase Domain of Plasmodium falciparum Thymidylate Synthase-Dihydrofolate Reductase; made in house
T2 sequence (A7UD81 1-231 A16V/S108T): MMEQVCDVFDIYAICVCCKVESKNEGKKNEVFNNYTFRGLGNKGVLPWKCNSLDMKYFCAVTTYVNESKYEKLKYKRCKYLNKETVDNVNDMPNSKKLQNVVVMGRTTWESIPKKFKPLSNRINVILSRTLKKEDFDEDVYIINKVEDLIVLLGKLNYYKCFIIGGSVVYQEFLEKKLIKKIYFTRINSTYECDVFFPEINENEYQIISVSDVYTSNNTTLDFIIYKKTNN
As to the kind of experiment: biochemical.
Procedure: as §1

In another data set the test system is Plasmodium berghei. As to the kind of experiment: In vivo activity against Plasmodium berghei in mice. To be noted: P. berghei.
In data set [5] the test system is P. falciparum 3D7 (wild-type strain). The data set is described as follows: In vitro inhibition of P. falciparum 3D7. The class given is cell-based, Plasmodium falciparum. Particulars: 3D7 strain; for IC50: Plasmodium falciparum, read-out: Pf-3D7 ED50.
Data set [6] has as its target T3, DHFR-TS from Trypanosoma cruzi (Trypanosoma cruzi, UniProt Q27793).
T3 construct: pET 11c with the insertion of the complete ORF of the gene tc-dhfrts; made in house; host or cells: E. coli BL21 (DE3)
The data set is described as follows: Inhibition of T. cruzi DHFR-TS (I50-derived Ki).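 On all read-outs here: enzymes were recombinant T. cruzi DHFR-TS and human DHFR, both expressed in E. coli and purified on a methotrexate affinity column, with dihydrofolate and NADPH as substrates.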 The class given is biochemical. Particulars: for Selectivity: human Ki / T. cruzi Ki.
Procedure: DHFR activity was measured spectrophotometrically by monitoring the decrease in absorbance at 340 mm.
(§2) Inhibition of dihydrofolate reductases by 1,2-dihydro-1,3,5 triazines was analysed with T. cruzi and human DHFR.
(§3) DHFR assays contained 30 mM dihydrofolate, 0.1 mM NADPH, 50 mM TES buffer pH 7, 75 mM 2-mercaptoethanol and specified amounts of inhibitors. The reaction was initiated by addition of 2.8 or 2.3 units of T. cruzi and human, respectively, and monitored at 340 nm.
Selective inhibition of dihydrofolate reductase by 1,2-dihydro-1,3,5-triazines was analysed with T. cruzi and human DHFR. DHFR assays contained 30 μM dihydrofolate, 0.1 mM NADPH, 50 mM TES buffer pH 7, 75 mM β-mercaptoethanol and specified amounts of inhibitors. The reaction was initiated by addition of 2.8 or 2.3 units of T. cruzi and human enzyme, respectively, and monitored at 340 nm.
KiI 50=[I]0.5/((1+[S])/Km)

The target in data set [7] is T4, human DHFR (Homo sapiens, UniProt P00374).
T4 construct: made in house; host or cells: E. coli M15
T4 sequence (P00374 1-187): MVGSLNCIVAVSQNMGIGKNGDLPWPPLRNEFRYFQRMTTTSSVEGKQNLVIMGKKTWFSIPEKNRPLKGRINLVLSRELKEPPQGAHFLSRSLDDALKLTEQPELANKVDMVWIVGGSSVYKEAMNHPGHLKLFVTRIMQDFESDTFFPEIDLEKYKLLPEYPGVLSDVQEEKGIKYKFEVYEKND
As to the kind of experiment: Inhibition of human DHFR (I50-derived Ki).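 On all read-outs here: recombinant human DHFR expressed in E. coli and purified by methotrexate affinity chromatography, enzyme activity followed spectrophotometrically.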 The format is biochemical. Particulars: for Ki: human DHFR; for inhibitory activity against human DHFR: compared with methotrexate.
Procedure: (§4) Folic acid and NADPH, were purchased from Sigma. Dihydrofolate was prepared from folic acid dithionate reduction. Methotrexate (MTX) was from Lederle Laboratories. MTX sepharose CL-6B was prepared according to the protocol described by Dann. et al. IPTG came from Boehringer Manheim. The expression system used for recombinant human DHFR production, which includes the plasmid PB-E1/RB SII, SphI-HDHFR expressed in E. coli M15, was supplied by Santi, D. V (Department of Biochemistry and Biophysics and Department of Pharmaceutical Chemistry, University of California). Recombinant T. Cruzi DHFR-TS was produced using the system pET 11c with the insertion of the complete ORF of the gene tc-dhfrts. The resulting plasmid was called pET DT.
(§5) Human and T.cruzi DHFR were produced using inducible expression systems. For human DHFR, fresh overnight cultures of E. coli M15, transformed with the plasmid, pB-E1/RB SII, SphI-HDHFR, were grown in LB and 0.1 mg/ml ampicillin medium at 28° C. For T.cruzi DHFR-TS, cultures of E. coli, BL21 (DE3) transformed with the plasmid pETDT system were grown at 37° C. The same purification protocol was used for both systems. When OD600 was at 0.8, cells pellets were collected by centrifugation, suspended in 50 ml of LB medium, containing 0.1 mg/ml of ampicillin. 10 ml of this preinocule was added to 2 litres of LB medium. Cultures were shaken at 28° C. or 37° C. (for human and T. cruzi DHFR respectively) and induction with IPTG ImM was performed when OD600 reached 0.8. After IPTG induction, cells were grown overnight in a shaker at 28° C. or 5 hours at 28° C. or 37° C. (for human and T. cruzi DHFR respectively) and then harvested by centrifugation.
(§6) Cell pellets were suspended in sonication buffer (2× TES DHFR:TES 100 mM, 2-mercaptoethanol 150 mM, EDTA 2 mM pH=7) containing protease inhibitors.
(§7) Crude extract was circulated through the MTX-Sepharose column at 4° C. at a flow rate of 0.2 ml/min until the protein was bound to the resin. The column was washed with an excess of buffer B (KH2PO410 mM pH 7, KC1 1M). Protein was eluted at 0.2 min/ml with an elution buffer (100 mM TES, 10 mM DTT, 2 mM EDTA, DHF 8.5 mM), the elution profile was collected in 1 ml fractions using a Pharmacia LKB Frac 200 collector. Finally, the protein was desalted using molecular size exclusion chromatography in a Pharmacia G-25 column. Fractions containing DHFR activity were pooled and concentrated by ultrafiltration using centripreps Amicon.
(§8) The purity of the protein preparation was assessed by detection of a single band of the correct molecular weight stained with coomasie blue following a 12% SDS-PAGE. Protein concentration was determined by the method of Bradford using a BSA as a standard. DHFR activity was measured spectrophotometrically by monitoring the decrease in absorbance at 340 mm. […] One unit of enzyme, is defined as the amount of enzyme which produces 1 nmol of product per min using ε of 12300M^−1 at 340 nm.
as §2, §3
(§9) Selective inhibition of dihydrofolate reductase by 1,2-dihydro-1,3,5-triazines was analysed with T. cruzi and human DHFR. DHFR assays contained 30 μM dihydrofolate, 0.1 mM NADPH, 50 mM TES buffer pH 7, 75 mM β-mercaptoethanol and specified amounts of inhibitors. The reaction was initiated by addition of 2.8 or 2.3 units of T. cruzi and human enzyme, respectively, and monitored at 340 nm. […] KiI 50=[I]0.5/((1+[S])/Km)

Data set [8] concerns the target human DHFR. As to the kind of experiment: Inhibition of human DHFR (I50-derived Ki).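 Further: recombinant human DHFR expressed in E. coli and purified by methotrexate affinity chromatography, enzyme activity followed spectrophotometrically.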 The class given is biochemical.
Procedure: as §4, §5, §6, §7, §8, §2, §3, §9
Data set [9] has as its system P. falciparum FCR3 (resistant strain containing the A16V.S108T DHFR mutant). As to the kind of experiment: In vitro inhibition of P. falciparum FCR3. The class given is cell-based, Plasmodium falciparum. Particulars: for IC50: Plasmodium falciparum, read-out: Pf-FCR3 ED50.
Data set [10] relates to resistant T9/94 strain of P. falciparum (A16V.S108T pfDHFR). The data set is described as follows: In vitro antimalarial activity, [3H]-hypoxanthine incorporation, T9/94. The format is cell-based, Plasmodium falciparum. Particulars: resistant strain T9/94. The procedure: Mol. Biochem. Parasitol. […] Science, 1976, 193, 673-675]. In vitro antimalarial activity was determined by using [^3H]-hypoxanthine incorporation method [Desjardins, R. E.; Canfield, C. J.; Haynes, J. D.; Chulay, J. D. Quantitative assessment of antimalarial activity in vitro by a semiautomated microdilution technique. Antimicrob Agents Chemother. 1979, 16, 710-718]. The drugs were initially dissolved in DMSO and diluted with the culture media. Aliquots (25 μl) of drug solution of different concentrations was placed in 96-well plate together with 200 μl of 1.5% cell suspension of parasitized erythrocytes containing 1-2% parasitemia. Final concentration of DMSO was 0.1% where there was no effect on the parasite growth. The mixtures were incubated in a 3% CO2 incubator at 37° C. After 24 h of incubation, 25 μl (0.25 μCi) of [^3H]-hypoxanthine were added to each well. The mixtures were further incubated under the same condition for 18-24 h. DNA of parasites was harvested onto glass filter paper (Unifilter, Packard, USA). The filters were dried and liquid scintillation fluid was added for radioactivity measurement in a 6-probe liquid scintillation-counter (Packard, USA).

SMILES strings stand for the structures. ≈ marks a conversion by molar mass, not a printed value. Like-named read-outs stand apart in the source and are kept apart here.

T3 sequence (Q27793 whole entry): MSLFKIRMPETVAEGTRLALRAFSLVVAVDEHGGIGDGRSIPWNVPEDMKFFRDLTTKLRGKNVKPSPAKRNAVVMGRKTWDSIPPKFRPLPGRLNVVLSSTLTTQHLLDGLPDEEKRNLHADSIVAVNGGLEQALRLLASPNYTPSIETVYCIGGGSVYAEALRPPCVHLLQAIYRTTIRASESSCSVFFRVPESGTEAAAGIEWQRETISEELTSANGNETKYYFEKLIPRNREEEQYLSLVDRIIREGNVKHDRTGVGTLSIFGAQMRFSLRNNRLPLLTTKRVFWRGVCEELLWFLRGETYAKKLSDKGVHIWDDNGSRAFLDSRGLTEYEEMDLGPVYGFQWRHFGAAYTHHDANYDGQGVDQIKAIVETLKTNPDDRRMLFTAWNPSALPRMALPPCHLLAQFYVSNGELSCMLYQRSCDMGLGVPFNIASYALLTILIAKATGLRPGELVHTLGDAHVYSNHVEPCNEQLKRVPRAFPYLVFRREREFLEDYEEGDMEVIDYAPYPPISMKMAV
T1 sequence (P13922 10-228 R59C/N108S): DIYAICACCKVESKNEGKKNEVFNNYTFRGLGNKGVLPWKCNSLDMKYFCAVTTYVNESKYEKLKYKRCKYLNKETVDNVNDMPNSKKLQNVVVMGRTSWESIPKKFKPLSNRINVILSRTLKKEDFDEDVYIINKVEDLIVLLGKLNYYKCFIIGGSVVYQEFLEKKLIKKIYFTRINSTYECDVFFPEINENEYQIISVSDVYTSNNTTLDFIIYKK
Procedure for Plasmodium berghei: These analogues were tested in vivo in a mice against Plasmodium berghei.

For `COc1ccc(Oc2cccc(C3N=C(N)N=C(N)N3c3cccc(Cl)c3)c2)cc1` (stereo not drawn) [(Ib) R2=3-(4-methoxyphenoxy)phenyl], in [1] (Plasmodium falciparum), the IC50 was determined as 4120 nM. Besides, the results for the Ki in data set [2] (Ki(wt) nM) and in [4] were 2.3 ± 0.1 nM and 2.5 ± 0.3 nM, respectively. Besides, in data set [3], the “Ki(mut)/Ki(wt)” value stood at 1.1. The “Mean % infected RBC” value in the data set with Plasmodium berghei (25 mg/kg daily x4) turned out to be 1.94%.

For the compound `NC1=NC(c2cccc(Oc3ccccc3)c2)N(c2cccc(Cl)c2)C(N)=N1` (stereo not drawn) [(Ib) R2=3-phenoxyphenyl, 1-m-chlorophenyl-2-m-phenoxyphenyl-4,6-diamino-1,2-dihydro-1,3,5-triazine], the IC50 in data set [5] is 0.22 mg/L (≈ 0.561 µM); in [1] (Plasmodium falciparum), 2300 nM; in data set [9] (in vitro, FCR3 strain), 0.0008 mg/L (≈ 0.00204 µM). In addition, the Ki in [6] is 4 nM; in [2] (Ki(wt) nM), 1 ± 0.2 nM; on human DHFR [7] (Human Ki (I50)(nM)), 2 nM; in [4], 1.9 nM. In addition, in data set [6], the Selectivity is on record as 0.5. Further, the “inhibitory activity against human DHFR” value against human DHFR [7] is listed as “comparable to that of methotrexate”. The “Ki (human)/Ki (P. falc. mut)” value at human DHFR [8] came out at 0.8. For the same compound, on human DHFR [8], the “Ki (human)/Ki (P. falc. wt)” value came out at 1.8. Further, at human DHFR [8], the “Ki (human)/Ki (T. cruzi)” value came to 0.5. Further, the “Ki(mut)/Ki(wt)” value in [3] turned out to be 1.9. Moreover, the “ED50 against the resistant Pf FCR-3 strain in vitro” value in data set [9] was 0.8 nM. In the data set with Plasmodium berghei (25 mg/kg daily x4), the “Mean % infected RBC” value came out at 7.05%.

In the case of `NC1=NC(c2cccc(Oc3ccc(Cl)cc3)c2)N(c2cccc(Cl)c2)C(N)=N1` (stereo not drawn) [(Ib) R2=3-(4-chlorophenoxy)phenyl], the IC50 in data set [5] was 0.36 mg/L (≈ 0.844 µM); in data set [1] (Plasmodium falciparum), 3950 nM; in data set [9] (in vitro, FCR3 strain), 0.078 mg/L (≈ 0.183 µM). The Ki in data set [2] (Ki(wt) nM) stood at 1.3 nM; in data set [4], 3.5 ± 0.5 nM. Also, the “Ki(mut)/Ki(wt)” value in data set [3] came to 2.7. For the same compound, the “Mean % infected RBC” value with Plasmodium berghei (25 mg/kg daily x4) turned out to be 5.0%.

Regarding `NC1=NC(c2ccc(Cl)cc2)N(c2ccc(Cl)cc2)C(N)=N1` (stereo not drawn) [(Ia) R2=p-chlorophenyl], the results for the IC50 in data set [1] and in data set [10] were 499 nM and 386 nM, respectively. The Ki in data set [6] (T. cruzi DHFR-TS, read-out: T. cruzi Ki (I50)) turned out to be 270 nM; in data set [2] (read-out: Ki(wt)), 7.5 ± 0.9 nM; on human DHFR [7] (read-out: Human Ki (I50)), 2960 nM; in data set [4] (A16V.S108T mutant pfDHFR, read-out: Ki(mut)), 105 ± 17 nM. This compound showed a Selectivity in [6] of 11. In addition, the “Ki (human)/Ki (P. falc. mut)” value at human DHFR [8] was 28. Further, the “Ki (human)/Ki (P. falc. wt)” value at human DHFR [8] was 395. In addition, on human DHFR [8], the “Ki (human)/Ki (T. cruzi)” value came to 11.0. For the same compound, in data set [3], the “Ki(mut)/Ki(wt)” value came to 14.0.

For `NC1=NC(c2ccc(Oc3ccccc3)cc2)N(c2cccc(Cl)c2)C(N)=N1` (stereo not drawn) [(Ib) R2=4-phenoxyphenyl], the IC50 in data set [1] (Plasmodium falciparum) was determined as 647 nM; in data set [9] (in vitro, FCR3 strain), 0.004 mg/L (≈ 0.0102 µM). The Ki was 0.7 nM in data set [2] (Ki(wt) nM) and 2.7 ± 0.4 nM in data set [4]. In addition, in [3], the “Ki(mut)/Ki(wt)” value is recorded as 3.9. Further, the “Mean % infected RBC” value in the data set on Plasmodium berghei (25 mg/kg, schedule b) stood at 11.42%.

Consider `NC1=NC(c2cccc(Oc3ccccc3)c2)N(c2ccc(OCc3ccccc3)cc2)C(N)=N1` (stereo not drawn) [1-p-Benzyloxyphenyl-2-m-phenoxyphenyl-4,6-diamino-1,2-dihydro-1,3,5-triazine], for which the melting point fell in the range of 208 to 210 °C. For the same compound, in data set [1] (Plasmodium falciparum), the IC50 is 255 nM. In addition, in data set [6], the inhibitory constant (Ki) came out at 3 nM and the Selectivity is recorded as 3.3. The same compound displayed an inhibitory constant (Ki) in [2] (Ki(wt) nM) of 0.9 ± 0.2 nM. In addition, the inhibitory constant (Ki) on human DHFR [7] (Human Ki (I50)(nM)) came out at 10 nM. In addition, the “inhibitory activity against human DHFR” value against human DHFR [7] is “comparable to that of methotrexate”. In addition, at human DHFR [8], the “Ki (human)/Ki (P. falc. mut)” value is listed as 2.2, the “Ki (human)/Ki (P. falc. wt)” value was 11 and the “Ki (human)/Ki (T. cruzi)” value was 3.33. Moreover, the “Ki(mut)/Ki(wt)” value in [3] is 5. In data set [4], this compound returned a Ki of 4.5 ± 0.6 nM.

Turning to `CCCCOc1ccc(C2N=C(N)N=C(N)N2c2cccc(Cl)c2)cc1` (stereo not drawn) [R2=4-nBuOC6H4, X=H, Y=Cl], the “Pf-3D7 ED50” value in data set [5] was 0.3 mg/L. Also, the “Pf-FCR3 ED50” value in data set [9] (in vitro, FCR3 strain) stood at 0.0038 mg/L. In addition, in the data set with Plasmodium berghei (25 mg/kg daily x4), the “Mean % infected RBC” value stood at 16.46%.

In the case of `CCN(CC)CCCC(C)Nc1ccnc2cc(Cl)ccc12` (stereo not drawn) [Chloroquine, reference compound], the “Mean % infected RBC” value with Plasmodium berghei (10 mg/kg daily x4) came to 3.58%.

Consider `NC1=NC(c2ccc(Oc3ccc(C(F)(F)F)cc3)cc2)N(c2cccc(Cl)c2)C(N)=N1` (stereo not drawn) [R2=4-(4-CF3PhO)C6H4, X=H, Y=Cl], for which the “Mean % infected RBC” value in the data set with Plasmodium berghei (24 mg/kg daily x4) stood at 4.4%.

For `NC1=NC(c2cccc(Oc3ccc(Cl)c(Cl)c3)c2)N(c2cccc(Cl)c2)C(N)=N1` (stereo not drawn) [(Ib) R2=3-(3,4-dichlorophenoxy)phenyl], in data set [1] (Plasmodium falciparum), the IC50 was 3900 nM. The Ki in data set [2] (Ki(wt) nM) was 2.2 ± 0.2 nM; in data set [4], 9.1 ± 0.7 nM. In data set [3], the “Ki(mut)/Ki(wt)” value was 4.1. For the same compound, in the data set on Plasmodium berghei (25 mg/kg daily x4), the “Mean % infected RBC” value stood at 13.0%.

By Ki is commonly meant the dissociation constant of the complex between target and ligand, obtained from inhibition or displacement. A word on the melting point: it is the temperature of the solid-liquid transition.
